Experimental data as given in article PMC6403271, “Characterization, mechanism of action and optimization of activity of a novel peptide-peptoid hybrid against bacterial pathogens involved in canine skin infections” (Scientific Reports, 2019).
Converted amounts (≈) assume the structure as drawn. “Also recorded” adds a separate entry of the source. Like-named read-outs stand apart in the source and are kept apart here. Square brackets hold non-standard residues; d marks the D form. Peptide text beside a SMILES is read from it. N(1-naphthylmethyl)Gly = O=C(O)CNCc1cccc2ccccc12; 2Nal = N[C@@H](Cc1ccc2ccccc2c1)C(=O)O; d1Nal = N[C@H](Cc1cccc2ccccc12)C(=O)O; N(4-MeBn)Gly = Cc1ccc(CNCC(=O)O)cc1; dNle = CCCC[C@@H](N)C(=O)O; Nle = CCCC[C@H](N)C(=O)O; NBuGly = CCCCNCC(=O)O

Key:
P. aeruginosa (26314) = format: cell-based, Pseudomonas aeruginosa
Method in brief: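 Canine clinical isolate P. aeruginosa 26314 tested by CLSI broth microdilution at 5 × 10^5 CFU/mL in Mueller Hinton broth II against 2-fold peptide dilutions of 1-64 μg/ml. MIC = lowest concentration without visible growth after 18 h at 37 °C; triplicates on two days.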

S. aureus strains = format: cell-based, Staphylococcus aureus; conditions: 18 h
Text: For antibacterial spectrum the following strains were used: Corynebacterium auriscanis, 31551, (54 C6, dog, ear, 2013); Enterococcus faecalis, 27404, (17 C7, dog, wound, 2011); Enterococcus faecium, 30951, (24 C1, dog, ear, 2013); Streptococcus canis, 26740-1, (14 H1, dog, ear, 2010); Staphylococcus aureus, 27266, (16 G9, dog, skin, 2010); Staphylococcus aureus, 27266, (16 G9, dog, skin, 2010); Staphylococcus pseudintermedius 22963, (3 B9, dog, 2007). Acinetobacter baumannii, 27065, (16 D1, dog, wound, 2010); E. coli, 30235, 23 A6, dog, wound, 2012; Klebsiella pneumoniae, 26233, (11 H5, dog, wound, 2010); Pasteurella canis, 31096, (24 C8, dog, skin, 2013); Proteus mirabilis, 25178, (9 A4, dog, ear, 2009); Pseudomonas aeruginosa 26314, 12 C5, dog, urine, 2010). […] 25054, (8 G6, dog, wound, 2009); 27266, (16 G9, dog, skin, 2010 also used in exp above); 28264,(20 B1, dog, wound, 2011); 30935, (24 B9, dog, joint, 2013); 36968, (61 A9, dog, wound, 2016); 37595,(65 D2, dog, joint, 2016); 37708-2, (66 C6, dog, skin, 2016); 38200, (68 E9, dog, skin, 2016); 38565-1, (70 A5, dog, skin, 2017); 38841, (70 G5, dog, urine, 2017). MIC determination was performed by broth microdilution according to the Clinical and Laboratory Standard Institute (CLSI, […]-A3, 2008)[62]. In brief, each bacterial strain was diluted to concentration of 5 × 10^5 CFU/mL in Mueller Hinton broth II (MHB II) media (Oxoid) and added to a two-fold serial dilution of peptides and peptide-peptoid hybrids concentrations ranging from 1 to 64 μg/ml in 96-well plates (Nunc Internationals, Rochester, NY). The MICs were determined as a lowest concentration showing no visible growth after incubation for 18 hours at 37 °C. Experiments were performed in triplicates on two different days.

P. aeruginosa 26314 = test: Time-kill kinetics, P. aeruginosa 26314; format: cell-based, Pseudomonas aeruginosa
Experimental: Time kill assays were performed in triplicate, meaning that every value is the average of three different samplings. Time–kill kinetic assays were performed using P. aeruginosa (26314), MRSP E104 and/or MRSP C22963 to determine the cell killing activity of B1 and two of its most promising analogues (compounds 23 and 26) based on prior antimicrobial susceptibility testing. The method reported by Blondeau et al.[63] was followed with minor modifications. […] After 0, 15, 30, 60, 120, 180 and 300 min of growth, 100 μL aliquots were collected and 10-fold serially diluted. Twenty μL of cell suspension from each dilution were spotted in triplicate on blood agar plates followed by 16–18 h incubation at 37 °C and determination of colony forming units (CFU).

MRSP C22963 = test: Time-kill kinetics, MRSP C22963; format: cell-based, Staphylococcus pseudintermedius; conditions: for time to complete killing of the MRSP strain: all tested concentrations at or above the MIC
Experimental: Time kill assays were performed in triplicate, meaning that every value is the average of three different samplings. Time–kill kinetic assays were performed using P. aeruginosa (26314), MRSP E104 and/or MRSP C22963 to determine the cell killing activity of B1 and two of its most promising analogues (compounds 23 and 26) based on prior antimicrobial susceptibility testing. The method reported by Blondeau et al.[63] was followed with minor modifications. Briefly, the assay was performed in MHB II with concentrations corresponding to 0.5, 1, 2 and 4 times the MIC of the strain. After 0, 15, 30, 60, 120, 180 and 300 min of growth, 100 μL aliquots were collected and 10-fold serially diluted. Twenty μL of cell suspension from each dilution were spotted in triplicate on blood agar plates followed by 16–18 h incubation at 37 °C and determination of colony forming units (CFU).

Compound | Minimum Inhibitory Concentration P. aeruginosa (26314) (P. aeruginosa (26314); 26314, 18 h) | MIC Staphylococcus aureus (S. aureus strains) | MICs for the three S. aureus isolates tested (S. aureus strains) | killing of P. aeruginosa 26314 (P. aeruginosa 26314; 1x MIC, delayed re-growth) | time to kill P. aeruginosa 26314 (P. aeruginosa 26314; 2x MIC) | time to kill P. aeruginosa 26314 (P. aeruginosa 26314; 4x MIC) | time to kill P. aeruginosa (P. aeruginosa 26314; 8 x MIC) | Minimum Inhibitory Concentration P. aeruginosa (26314) (P. aeruginosa (26314); Table 1) | MIC S. aureus strain 25054 (S. aureus strains) | MIC S. aureus strain 27266 (S. aureus strains) | MIC S. aureus strain 28264 (S. aureus strains) | MIC S. aureus strain 30935 (S. aureus strains) | MIC S. aureus strain 36968 (S. aureus strains) | MIC S. aureus strain 37595 (S. aureus strains) | MIC S. aureus strain 37708-2 (S. aureus strains) | MIC S. aureus strain 38200 (S. aureus strains) | MIC S. aureus strain 38565-1 (S. aureus strains) | complete killing of P. aeruginosa (P. aeruginosa 26314; up to highest tested concentration (8x MIC)) | time to complete killing of the MRSP strain (MRSP C22963) | time to complete killing of MRSP C22963 (MRSP C22963; 0.5x MIC)
CCCCN(CC(=O)N[C@@H](CCCCN)C(=O)N(CC(=O)N(CC(=O)N(CC(N)=O)Cc1cccc2ccccc12)Cc1ccc(C)cc1)Cc1cccc2ccccc12)C(=O)[C@H](CCCCN)NC(=O)[C@@H](N)CCCCN [B1, Lys-Lys-(NBu)Gly-Lys-(N1-Nal)Gly-(N4-MeBn)Gly-(N1-Nal)Gly] (H-KK[NBuGly]K[N(1-naphthylmethyl)Gly][N(4-MeBn)Gly][N(1-naphthylmethyl)Gly]-NH2) | 8 to 16 µg/mL | 8 µg/mL (≈ 7.47 µM) | 4 to 8 µg/mL | did not eliminate | 24 h | 2 h | less than 30 min |  |  |  |  |  |  |  |  |  |  |  |  | 
CCCC[C@H](NC(=O)[C@H](CCCCN)NC(=O)[C@H](CCCCN)NC(=O)[C@@H](N)CCCCN)C(=O)N[C@@H](Cc1ccc2ccccc2c1)C(=O)N[C@@H](Cc1ccccc1)C(=O)N[C@@H](Cc1ccc2ccccc2c1)C(N)=O [Compound 23, Lys-Lys-Lys-Nle-(2-Nal)Ala-Phe-(2-Nal)Ala] (H-KKK[Nle][2Nal]F[2Nal]-NH2) |  | 32 µg/mL (≈ 30.3 µM) |  |  |  |  |  | 8 µg/mL | 64 µg/mL (≈ 60.6 µM) | 32 to 64 µg/mL | 64 µg/mL (≈ 60.6 µM) | 64 µg/mL (≈ 60.6 µM) | 64 µg/mL (≈ 60.6 µM) | >64 µg/mL | 32 µg/mL (≈ 30.3 µM) | 64 µg/mL (≈ 60.6 µM) | 64 µg/mL (≈ 60.6 µM) | not able to completely kill; also recorded: not able to eliminate | ≤ 2 h | 
CCCC[C@@H](NC(=O)[C@H](CCCCN)NC(=O)[C@H](CCCCN)NC(=O)[C@@H](N)CCCCN)C(=O)N[C@H](Cc1cccc2ccccc12)C(=O)N[C@H](Cc1ccccc1)C(=O)N[C@H](Cc1cccc2ccccc12)C(N)=O [Compound 26, Lys-Lys-Lys-nle-(1-Nal)ala-phe-(1-Nal)ala] (H-KKK[dNle][d1Nal][dF][d1Nal]-NH2; N-terminus assumed) |  | 64 µg/mL (≈ 60.6 µM) |  |  |  |  |  | 8 µg/mL | >64 µg/mL | 64 µg/mL (≈ 60.6 µM) | >64 µg/mL | >64 µg/mL | >64 µg/mL | >64 µg/mL | >64 µg/mL | >64 µg/mL | >64 µg/mL |  | ≤ 2 h | ≤ 1 h
